Tests used:
[1] = system: E. coli tolC-deficient (tolC; MB5747); assay: Antibacterial activity against tolC-deficient E. coli; assay type: cell-based
[2] = system: panel of bacterial isolates, including macrolide-resistant strains; assay: Antibacterial activity against panel of bacterial isolates (MIC); assay type: cell-based; conditions: comparison with other compounds of the series or reference macrolides
Procedure: Acylides 2-24, as well as carbamate acylides 29-42, 47-48 and 55 and 56 were tested for antibacterial activity against a panel of bacterial isolates, including macrolide-resistant strains. Furthermore, potential toxicity against human HEK293 and red blood cells was assessed. All compounds were submitted to ComPlat (Karlsruhe Institute of Technology, Germany) for compound management and screening. As reference antibiotics, the macrolide antibiotics clarithromycin (CTY), telithromycin (TEL), solithromycin (SOL), as well as the previously reported acylides TEA0777 and X10324 (See, Wayne, P. C. a. L. S. I., Methods for Dilution Antimicrobial Susceptibility Tests for Bacteria That Grow Aerobically. CLSI document M07. CLSI 2009) were employed. […]
Furthermore, the Gram-negative bacteria E. coli (DSM 30083), Acinetobacter baumannii Bouvet and Grimont 1986 (DSM 30007) and Pseudomonas aeruginosa (DSM 50071) were assayed. […] The MIC values were determined as previously described (See, Wayne, P. C. a. L. S. I., Methods for Dilution Antimicrobial Susceptibility Tests for Bacteria That Grow Aerobically. CLSI document M07. CLSI 2009; Albada, H. B., et al., Modulating the activity of short arginine-tryptophan containing antibacterial peptides with N-terminal metallocenoyl groups. 2012. 8(1): p. 1753-1764).

| Compound | activity against tolC-deficient E. coli [1] | antibacterial activity (in words) [2] |
| --- | --- | --- |
| CC[C@H]1OC(=O)[C@H](C)C(=O)[C@H](C)[C@@H](O[C@@H]2O[C@H](C)C[C@H](N(C)C)[C@H]2O)[C@](C)(OC)C[C@@H](C)C(=O)[C@H](C)[C@H]2N(CCCCn3cnc(-c4cccnc4)c3)C(=O)O[C@]12C [telithromycin] | apart from the clinically used clarithromycin and telithromycin show activity |  |
| 2-desfluoro-solithromycin [Compound 50] |  | significantly less potent than solithroymcin |
| CC[C@H]1OC(=O)[C@H](C)[C@@H](O[C@H]2C[C@@](C)(OC)[C@@H](O)[C@H](C)O2)[C@H](C)[C@@H](O[C@@H]2O[C@H](C)C[C@H](N(C)C)[C@H]2O)[C@](C)(OC)C[C@@H](C)C(=O)[C@H](C)[C@@H](O)[C@]1(C)O [clarithromycin] | apart from the clinically used clarithromycin and telithromycin show activity |  |

Reference: patent US20260317364A1, “ACTIVE MACROLIDE ANTIBIOTIC COMPOUNDS AGAINST PATHOGENS” (priority 2023, published 2026)
